This passage reports IC50 results from US20110077251A1, “NOVEL 17 BETA LUPANE DERIVATIVES” (priority 2009, published 2011).

For assay [1], the system named is HIVIIIB. The assay is described as follows: HIV-1 replication in MT2 cell line without human serum (RT activity in supernatant). The assay is classed as cell-based. As to conditions: MT2 cells, day 5 after infection, average if tested more than once, read-out: MT2 (HIVIIIB) IC50 range. The procedure: (§1) HIV-1 Replication in MT2 cell line with and without 30% human serum: The cells are infected at a Multiciplicity of Infection (MOI) of 0.5 for 3 h and then washed twice with complete media to remove residual virus. Cells are then resuspended at 0.5×10^6/ml in complete medium (RPMI, 10% FBS, 1% sodium pyruvate), and seeded into 96-well plates (6.25×10^4/well). The cells are cultured in the presence or absence of various concentrations of test compounds in serial dilutions for 3 days at 37° C. The test compounds are serially diluted in complete medium supplemented or not with 30% human serum. After 3 days, 100 μL of cultured medium with cells are replaced with 120 μL of freshly diluted test compounds in complete medium containing or not 30% Human serum. The level of HIV-1 replication is determined at days 5 after infection by the presence of viral RT activity in harvested supernatant fluid. The IC50 values for the virus replication are determined by using GRAPHPAD PRISM software.
(§2) The IC50 of the compounds tested in accordance with the HIV replication activity assay MT2 (HIVIIIB) with or without human serum are represented in Table 6.

Assay [2] concerns HIVIIIB. The assay is described as follows: HIV-1 replication in MT2 cell line with 30% human serum (RT activity in supernatant). In kind it is cell-based. The conditions noted are these: MT2 cells, day 5 after infection, average if tested more than once, read-out: MT2 (HIVIIIB) with human serum IC50 range. The procedure:
as §1, §2

Where [3] appears, read: Human immunodeficiency virus 1, 120 h.

Consider `C=C(C)[C@@H]1CC[C@]2(NC(=O)c3ccncc3)CC[C@]3(C)[C@H](CC[C@@H]4[C@@]5(C)CC[C@H](OC(=O)CC(C)(C)C(=O)O)C(C)(C)[C@@H]5CC[C@]43C)[C@@H]12` [Cpd 13-8, 3β-O-(3′,3′-Dimethylsuccinyl)-17β-(pyridin-4-ylcarbonyl)-amino-28-norlup-20(29)-ene], for which the IC50 (usually the concentration at which inhibition is half-maximal) was under 199 nM in assay [1] (setting [3]) and 200 to 999 nM in assay [2] (setting [3]).
Turning to `C=C(C)[C@@H]1CC[C@]2(NC(N)=O)CC[C@]3(C)[C@H](CC[C@@H]4[C@@]5(C)CC[C@H](OC(=O)CC(C)(C)C(=O)O)C(C)(C)[C@@H]5CC[C@]43C)[C@@H]12` [Cpd 11-10, 3β-O-(3′,3′-Dimethylsuccinyl)-17β-ureido-28-norlup-20(29)-ene], the half-inhibitory concentration (IC50) in assay [1] (setting [3]) and in assay [2] (setting [3]) was under 199 nM each time.
In the case of `C=C(C)[C@@H]1CC[C@]2(NC(C)=O)CC[C@]3(C)[C@H](CC[C@@H]4[C@@]5(C)CC[C@H](OC(=O)CC(C)(C)C(=O)O)C(C)(C)[C@@H]5CC[C@]43C)[C@@H]12` [Cpd 13-1, 17β-Acetylamino-3β-O-(3′,3′-dimethylsuccinyl)-28-norlup-20(29)-ene], the IC50 in assay [1] (setting [3]) and in assay [2] (setting [3]) was under 199 nM throughout.
For `C=C(C)[C@@H]1CC[C@]2(NC(=O)CCN3CCCC3)CC[C@]3(C)[C@H](CC[C@@H]4[C@@]5(C)CC[C@H](OC(=O)CC(C)(C)C(=O)O)C(C)(C)[C@@H]5CC[C@]43C)[C@@H]12` [Cpd 13-11, 3β-O-(3′,3′-Dimethylsuccinyl)-17β-(3-pyrrolidin-1-yl-propionylamino)-28-norlup-20(29)-ene], the IC50 in assay [1] (setting [3]) and in assay [2] (setting [3]) was under 199 nM in each case.
For the molecule `C=C(C)[C@@H]1CC[C@]2(NC(=O)N3CCOCC3)CC[C@]3(C)[C@H](CC[C@@H]4[C@@]5(C)CC[C@H](OC(=O)CC(C)(C)C(=O)O)C(C)(C)[C@@H]5CC[C@]43C)[C@@H]12` [Cpd 11-8, 3β-O-(3′,3′-Dimethylsuccinyl)-17β-[(morpholine-4-carbonyl)-amino]-28-norlup-20(29)-ene], the IC50 in assay [1] (setting [3]) and in assay [2] (setting [3]) was under 199 nM in each case.
As for `C=C(C)[C@@H]1CC[C@]2(NC(=O)C(C)C)CC[C@]3(C)[C@H](CC[C@@H]4[C@@]5(C)CC[C@H](OC(=O)CC(C)(C)C(=O)O)C(C)(C)[C@@H]5CC[C@]43C)[C@@H]12` [Cpd 13-10, 3β-O-(3′,3′-Dimethylsuccinyl)-17β-isobutyrylamino-28-norlup-20(29)-ene], the IC50 in assay [1] (setting [3]) and in assay [2] (setting [3]) was under 199 nM in each case.
Consider `C=C(C)[C@@H]1CC[C@]2(NC(=O)NC(C)(C)C)CC[C@]3(C)[C@H](CC[C@@H]4[C@@]5(C)CC[C@H](OC(=O)CC(C)(C)C(=O)O)C(C)(C)[C@@H]5CC[C@]43C)[C@@H]12` [Cpd 11-2, 3β-O-(3′,3′-Dimethylsuccinyl)-17β-[N′-(tert-butyl)ureido]-28-norlup-20(29)-ene], for which the 50% inhibitory concentration (IC50) in assay [1] (setting [3]) and in assay [2] (setting [3]) was under 199 nM throughout.
As for `C=C(C)[C@@H]1CC[C@]2(NC(=O)C3CC3)CC[C@]3(C)[C@H](CC[C@@H]4[C@@]5(C)CC[C@H](OC(=O)CC(C)(C)C(=O)O)C(C)(C)[C@@H]5CC[C@]43C)[C@@H]12` [Cpd 13-9, 17β-(Cyclopropanecarbonyl-amino)-3β-O-(3′,3′-dimethylsuccinyl)-28-norlup-20(29)-ene], the IC50 in assay [1] (setting [3]) and in assay [2] (setting [3]) was under 199 nM in each case.
`C=C(C)[C@@H]1CC[C@]2(NC(=O)Cc3ccccc3)CC[C@]3(C)[C@H](CC[C@@H]4[C@@]5(C)CC[C@H](OC(=O)CC(C)(C)C(=O)O)C(C)(C)[C@@H]5CC[C@]43C)[C@@H]12` [Cpd 13-6, 3β-O-(3′,3′-Dimethylsuccinyl)-17β-phenylacetylamino-28-norlup-20(29)-ene]: the IC50 in assay [1] (setting [3]) and in assay [2] (setting [3]) was under 199 nM each time.
Take `CC(=O)NC12CCC(C(C)C)C1C1CCC3C4(C)CCC(OC(=O)CC(C)(C)C(=O)O)C(C)(C)C4CCC3(C)C1(C)CC2` (stereo not drawn) [Cpd 22-1, 3β-O-(3′,3′-Dimethylsuccinyl)-17β-acetylamino-28-norlupane]: the IC50 in assay [1] and in assay [2] was under 199 nM throughout.
As to `C=C(C)[C@@H]1CC[C@]2(NC(=O)C(=O)OC)CC[C@]3(C)[C@H](CC[C@@H]4[C@@]5(C)CC[C@H](OC(=O)CC(C)(C)C(=O)O)C(C)(C)[C@@H]5CC[C@]43C)[C@@H]12` [Cpd 13-2, 3β-O-(3′,3′-Dimethylsuccinyl)-17β-methoxyoxalyl-amino-28-norlup-20(29)-ene], the half-maximal inhibitory concentration (IC50) in assay [1] (setting [3]) was under 199 nM.
On the same count and under the same terms, the result for `C=C(C)[C@@H]1CC[C@]2(NC(=O)CC(C)(C)CC(=O)O)CC[C@]3(C)[C@H](CC[C@@H]4[C@@]5(C)CC[C@H](OC(=O)CC(C)(C)CC(=O)O)C(C)(C)[C@@H]5CC[C@]43C)[C@@H]12` [Cpd 13-5, 3β-O,17β-N-bis(3′,3′-dimethylglutaryl)-28-norlup-20(29)-ene] reads under 199 nM; that for `C=C(C)[C@@H]1CC[C@]2(NC(=O)N[C@@H](C(=O)O)C(C)C)CC[C@]3(C)[C@H](CC[C@@H]4[C@@]5(C)CC[C@H](OC(=O)CC(C)(C)C(=O)O)C(C)(C)[C@@H]5CC[C@]43C)[C@@H]12` [Cpd 11-4, 3β-O-(3′,3′-Dimethylsuccinyl)-28-norlup-20(29)-ene-17β-yl-N-carbamoyl-L-valine], under 199 nM.
As for `C=C(C)[C@@H]1CC[C@]2(NS(C)(=O)=O)CC[C@]3(C)[C@H](CC[C@@H]4[C@@]5(C)CC[C@H](OC(=O)CC(C)(C)C(=O)O)C(C)(C)[C@@H]5CC[C@]43C)[C@@H]12` [Cpd 12-1, 3β-O-(3′,3′-Dimethylsuccinyl)-17β-methylsulfonylamino-28-norlup-20(29)-ene], the IC50 in assay [1] (setting [3]) and in assay [2] (setting [3]) was under 199 nM each time.
In the case of `C=C(C)[C@@H]1CC[C@]2(NC(=O)C(=O)N(C)C)CC[C@]3(C)[C@H](CC[C@@H]4[C@@]5(C)CC[C@H](OC(=O)CC(C)(C)C(=O)O)C(C)(C)[C@@H]5CC[C@]43C)[C@@H]12` [Cpd 13-3, 17β-Dimethylaminooxalyl-amino-3β-O-(3′,3′-dimethylsuccinyl)-28-norlup-20(29)-ene], the half-maximal inhibitory concentration (IC50) in assay [1] (setting [3]) and in assay [2] (setting [3]) was under 199 nM each time.
As to `C=C(C)[C@@H]1CC[C@]2(NC(=O)OC(C)(C)C)CC[C@]3(C)[C@H](CC[C@@H]4[C@@]5(C)CC[C@H](OC(=O)CC(C)(C)C(=O)O)C(C)(C)[C@@H]5CC[C@]43C)[C@@H]12` [Cpd 8-1, 3β-O-(3′,3′-Dimethylsuccinyl)-17β-tert-butyloxycarbonylamino-28-norlup-20(29)-ene], the IC50 in assay [1] (setting [3]) is under 199 nM.
Consider `C=C(C)[C@@H]1CC[C@]2(NC(=O)OC)CC[C@]3(C)[C@H](CC[C@@H]4[C@@]5(C)CC[C@H](OC(=O)CC(C)(C)C(=O)O)C(C)(C)[C@@H]5CC[C@]43C)[C@@H]12` [Cpd 14-1, 3β-O-(3′,3′-Dimethylsuccinyl)-17β-methoxycarbonylamino-28-norlup-20(29)-ene], for which the IC50 in assay [1] (setting [3]) and in assay [2] (setting [3]) was under 199 nM in each case.
On to `C=C(C)[C@@H]1CC[C@]2(NC(=O)NCc3ccccc3)CC[C@]3(C)[C@H](CC[C@@H]4[C@@]5(C)CC[C@H](OC(=O)CC(C)(C)C(=O)O)C(C)(C)[C@@H]5CC[C@]43C)[C@@H]12` [Cpd 11-6, 3β-O-(3′,3′-Dimethylsuccinyl)-17β-[N′-(benzyl)ureido]-28-norlup-20(29)-ene], for which the IC50 in assay [1] (setting [3]) and in assay [2] (setting [3]) was under 199 nM throughout.
